Measurements from US20240425478A1, “CYCLOPENTYLPYRAZOLE CDK2 INHIBITORS” (Genentech, Inc., priority 2021, published 2024).
pIC50, pKi: −log10 of the molar value. Where two headings read alike, the source gives them in different places.

How the values were obtained:
[1] = target: T1, Cyclin Dependent Kinase 2/Cyclin E1 (CDK2-cycE1) (Homo sapiens, UniProt P24941); test: CDK2-cycE1 TR-FRET (LANCE) enzyme assay; format: biochemical; conditions: for FS CDK1/CDK2 / FS CDK4/CDK2: fold selectivity; for increased fold-selectivity CDK4/CDK2 over Comparator C: (+) sign after FS CDK4/CDK2;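 on improvement in potency against CDK2 (Ki) over Comparator C: fold lower CDK2 Ki than comparator c (Ki 0.032 µM)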
T1 construct: purchased ProQinase 0050-0055-1
Procedure, shortened: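 Kinase reaction buffer: 50 mM HEPES pH 7.5, 10 mM MgCl2, 2 mM TCEP, 0.05% BGG, 0.01% Brij 35, with 30 min compound–enzyme pre-incubation.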

[2] = target: T2, Cyclin Dependent Kinase 1/Cyclin A2 (CDK1-cycA2) (Homo sapiens, UniProt P06493); test: CDK1-cycA2 TR-FRET (Lance) enzyme assay; format: biochemical; conditions: Table O, enzymatic assay
T2 construct: purchased ProQinase 0134-0054-1
Procedure, shortened: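 TR-FRET (Lance) detection of phospho-4E-BP1 with a europium-labelled antibody after EDTA quench (15 mM final); signal taken as acceptor/donor ratio. Enzyme and compound were pre-incubated 30 min in HEPES pH 7.5 buffer with MgCl2, TCEP, BGG and Brij 35. Ki derived by Morrison fit.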

HCT116 cells = test: p-H3 HCT-116 mitotic release cell proliferation assay (cellular CDK1); format: cell-based; conditions: Homo sapiens, HCT-116; Table O, cellular assay; read-out: CDK1 p-H3 IC50
Procedure, shortened: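 Phospho-Histone H3 (Ser10) in lysates was quantified by a two-antibody HTRF FRET read (≥2 h, room temperature). Before this, HCT116 cells held in mitosis by 16 h of 500 nM nocodazole were treated with compound for 4 h at 37 °C, 0.1% DMSO.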

[3] = target: T3, Cyclin Dependent Kinase 4/Cyclin D3 (CDK4-cycD3) (Homo sapiens, UniProt P11802); test: CDK4-cycD3 TR-FRET (LANCE) enzyme assay; format: biochemical; conditions: Table O, enzymatic assay
T3 construct: purchased Carna Biosciences 04-105
Procedure, shortened: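 Compound dose responses pre-incubated 30 min with enzyme mix in 50 mM HEPES pH 7.5, 10 mM MgCl2, 2 mM TCEP, 0.05% BGG, 0.01% Brij 35. Reaction quenched with EDTA (15 mM final); Eu-anti-phospho-4E-BP1 TR-FRET detection, acceptor/donor ratio. Ki derived by Morrison equation.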

SKOV-3 (ATCC HTB-77) = test: SKOV-3 EdU incorporation cell proliferation assay (CDK4/6-dependent); format: cell-based; conditions: Homo sapiens, cellular assay, read-out: CDK4/6 SKOV-3 IC50
Procedure, shortened: (§1)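 EdU incorporation (0.5 μM final, last 8 h) follows a 16 h compound exposure at 37 °C, 5% CO2 in RPMI plus 10% FBS, 0.5% DMSO. After fixation, imaging scores EdU-positive cells; a 4-parameter logistic fit of that fraction gives IC50.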

[4] = system: OVISE (JCRB1043, CCNE1-amplified); test: OVISE EdU incorporation cell proliferation assay (CDK2-dependent); format: cell-based; conditions: for pIC50: cellular assay, read-out: CDK2 OVISE IC50; for FS SKOV-3/OVISE / FS p-H3/OVISE: fold selectivity; for FS p-H3/OVISE: cellular p-H3 IC50 over OVISE IC50; for increased fold-selectivity SKOV-3/OVISE over Comparator C: (+) sign after FS SKOV-3/OVISE; for improvement in CDK2 OVISE cell potency over Comparator C: in brackets after OVISE IC50, Comparator C 5.5 μM
Procedure, shortened: as §1

[5] = Table O, enzymatic assay, read-out: CDK2 Ki
[6] = Table O, enzymatic CDK1 Ki over CDK2 Ki
[7] = Table O, enzymatic CDK4 Ki over CDK2 Ki
[8] = Table Q, enzymatic assay, read-out: CDK2 Ki
[9] = read-out: CDK2 activity / potency (enzymatic assay)
[10] = Table O, cellular SKOV-3 IC50 over OVISE IC50

T2 sequence (P06493 whole entry): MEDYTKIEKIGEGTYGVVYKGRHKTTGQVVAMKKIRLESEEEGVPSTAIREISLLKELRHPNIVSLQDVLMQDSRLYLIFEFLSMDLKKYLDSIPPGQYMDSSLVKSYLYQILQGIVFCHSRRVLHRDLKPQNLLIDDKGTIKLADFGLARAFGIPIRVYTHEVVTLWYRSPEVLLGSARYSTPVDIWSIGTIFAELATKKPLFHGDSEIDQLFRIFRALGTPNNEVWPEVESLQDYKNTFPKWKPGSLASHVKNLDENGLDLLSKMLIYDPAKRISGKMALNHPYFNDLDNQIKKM
T2 sequence (P20248 whole entry partner): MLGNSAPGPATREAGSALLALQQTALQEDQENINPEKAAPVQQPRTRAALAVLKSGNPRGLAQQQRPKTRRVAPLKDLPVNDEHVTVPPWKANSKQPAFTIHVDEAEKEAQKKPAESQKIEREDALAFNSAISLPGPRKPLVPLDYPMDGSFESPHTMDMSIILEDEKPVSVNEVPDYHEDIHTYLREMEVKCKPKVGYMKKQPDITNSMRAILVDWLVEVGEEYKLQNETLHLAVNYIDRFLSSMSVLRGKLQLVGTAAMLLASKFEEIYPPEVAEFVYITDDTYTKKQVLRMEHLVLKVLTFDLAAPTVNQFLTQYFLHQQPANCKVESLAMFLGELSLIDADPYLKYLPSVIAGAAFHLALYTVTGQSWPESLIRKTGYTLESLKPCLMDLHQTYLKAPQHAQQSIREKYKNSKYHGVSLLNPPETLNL
T3 sequence (P11802 whole entry): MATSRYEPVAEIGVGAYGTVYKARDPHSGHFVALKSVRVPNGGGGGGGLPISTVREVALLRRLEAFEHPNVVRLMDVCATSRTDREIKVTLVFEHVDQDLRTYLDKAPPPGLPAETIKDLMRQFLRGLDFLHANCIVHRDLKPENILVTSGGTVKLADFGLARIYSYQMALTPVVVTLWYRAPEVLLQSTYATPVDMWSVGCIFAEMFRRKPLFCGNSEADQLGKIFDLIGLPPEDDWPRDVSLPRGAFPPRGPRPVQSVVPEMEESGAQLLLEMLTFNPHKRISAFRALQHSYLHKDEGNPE
T3 sequence (P30281 whole entry partner): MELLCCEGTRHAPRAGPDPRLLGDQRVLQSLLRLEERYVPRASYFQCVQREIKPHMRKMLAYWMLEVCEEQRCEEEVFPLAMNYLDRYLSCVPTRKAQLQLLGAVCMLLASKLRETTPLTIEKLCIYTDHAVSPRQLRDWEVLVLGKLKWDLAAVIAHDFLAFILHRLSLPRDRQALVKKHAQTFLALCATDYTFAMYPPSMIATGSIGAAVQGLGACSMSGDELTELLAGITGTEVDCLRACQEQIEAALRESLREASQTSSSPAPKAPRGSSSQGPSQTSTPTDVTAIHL

Compound | improvement in potency against CDK2 (Ki) over Comparator C [1] | pKi [1, 5] | FS CDK1/CDK2 [1, 6] | FS CDK4/CDK2 [1, 7] | increased fold-selectivity CDK4/CDK2 over Comparator C ([1]; Table Q) | pKi [1, 8] | FS CDK1/CDK2 ([1]; Table Q, enzymatic) | FS CDK4/CDK2 ([1]; Table Q, enzymatic) | pKi [1, 9] | pKi [2] | pIC50 (HCT116 cells) | pKi [3] | pIC50 (SKOV-3 (ATCC HTB-77); SK-OV-3, Table O) | pIC50 (SKOV-3 (ATCC HTB-77); SK-OV-3, Table Q) | pIC50 ([4]; Table O) | FS SKOV-3/OVISE [4, 10] | FS p-H3/OVISE ([4]; Table O) | increased fold-selectivity SKOV-3/OVISE over Comparator C ([4]; Table Q) | FS SKOV-3/OVISE ([4]; Table Q, cellular) | improvement in CDK2 OVISE cell potency over Comparator C ([4]; Table Q)
CC(C)NC(=O)O[C@@H]1CC[C@H](c2cc(Nc3ccnc(N(C)C)n3)n[nH]2)C1 [Example 2I, (1R,3S)-3-(3-((2-(dimethylamino)pyrimidin-4-yl)amino)-1H-pyrazol-5-yl)cyclopentyl isopropylcarbamate] | 103 fold | 9.51 | 19 | 87 | (+) (The (+) sign in Table Q signifies desirable increased fold-selectivity of the exemplary compounds over Comparator C) | 9.51 | 19 | 87 | ≥ 9.00 | 8.22 | 8.03 | 7.57 | 6.00 | 6.00 | 7.17 | 15 | 0.14 | (+) (The (+) sign in Table Q signifies desirable increased fold-selectivity of the exemplary compounds over Comparator C) | 15 | 82 fold
Cc1cncc(Nc2cc([C@H]3CC[C@@H](OC(=O)NC(C)C)C3)[nH]n2)c1 [Example 2K, (1R,3S)-3-(3-((5-methylpyridin-3-yl)amino)-1H-pyrazol-5-yl)cyclopentyl isopropylcarbamate] | 10 fold | 8.49 | 18 | 110 | (+) (The (+) sign in Table Q signifies desirable increased fold-selectivity of the exemplary compounds over Comparator C) | 8.49 | 18 | 110 |  | 7.23 | 7.06 | 6.47 | 5.11 | 5.11 | 6.72 | 41 | 0.46 | (+) (The (+) sign in Table Q signifies desirable increased fold-selectivity of the exemplary compounds over Comparator C) | 41 | 28.9 fold
CC(C)NC(=O)O[C@@H]1CC[C@H](c2cc(Nc3ccnc(C(F)(F)F)n3)n[nH]2)C1 [Example 2L, (1R,3S)-3-(3-((2-(trifluoromethyl)pyrimidin-4-yl)amino)-1H-pyrazol-5-yl)cyclopentyl isopropylcarbamate] | 188 fold | 9.77 | 17 | 650 | (+) (The (+) sign in Table Q signifies desirable increased fold-selectivity of the exemplary compounds over Comparator C) | 9.77 | 17 | 650 |  | 8.54 | 8.74 | 6.96 | 6.19 | 6.19 | 7.92 | 53 | 0.15 | (+) (The (+) sign in Table Q signifies desirable increased fold-selectivity of the exemplary compounds over Comparator C) | 53 | 458 fold
Cc1cncc(Nc2cc([C@H]3CC[C@@H](OC(=O)NC(C)C)C3)[nH]n2)n1 [Example 2M, (1R,3S)-3-(3-((6-methylpyrazin-2-y1)amino)-1H-pyrazol-5-yl)cyclopentyl isopropylcarbamate] | 123 fold | 9.59 | 24 | 110 | (+) (The (+) sign in Table Q signifies desirable increased fold-selectivity of the exemplary compounds over Comparator C) | 9.59 | 24 | 110 |  | 8.20 | 8.15 | 7.55 | 6.24 | 6.24 | 7.70 | 29 | 0.35 | (+) (The (+) sign in Table Q signifies desirable increased fold-selectivity of the exemplary compounds over Comparator C) | 29 | 275 fold
COc1cncc(Nc2cc([C@H]3CC[C@@H](OC(=O)NC(C)C)C3)[nH]n2)n1 [Example 2N, (1R,3S)-3-(3-((6-methoxypyrazin-2-yl)amino)-1H-pyrazol-5-yl)cyclopenty1 isopropylcarbamate] | 65 fold | 9.31 | 7.6 | 53 | (+) (The (+) sign in Table Q signifies desirable increased fold-selectivity of the exemplary compounds over Comparator C) | 9.31 | 7.6 | 53 |  | 8.43 | 7.96 | 7.59 | 5.92 | 5.92 | 7.54 | 41 | 0.38 | (+) (The (+) sign in Table Q signifies desirable increased fold-selectivity of the exemplary compounds over Comparator C) | 41 | 190 fold
Cc1nccc(Nc2cc([C@H]3CC[C@@H](OC(=O)NC(C)C)C3)[nH]n2)n1 [Example 2O, (1R,3S)-3-(3-((2-methylpyrimidin-4-yl)amino)-1H-pyrazol-5-yl)cyclopenty1 isopropylcarbamate] | 37 fold | 9.06 | 28 | 290 | (+) (The (+) sign in Table Q signifies desirable increased fold-selectivity of the exemplary compounds over Comparator C) | 9.06 | 28 | 290 |  | 7.62 | 7.66 | 6.60 | 5.41 | 5.41 | 7.15 | 56 | 0.31 | (+) (The (+) sign in Table Q signifies desirable increased fold-selectivity of the exemplary compounds over Comparator C) | 56 | 78.6 fold
CC(C)NC(=O)O[C@@H]1CC[C@H](c2cc(Nc3cncc(C(F)(F)F)n3)n[nH]2)C1 [Example 2R, (1R,3S)-3-(3-((6-(trifluoromethyl)pyrazin-2-yl)amino)-1H-pyrazol-5-yl)cyclopentyl isopropylcarbamate] | 320 fold | > 10.00 | 6.3 | 140 | (+) (The (+) sign in Table Q signifies desirable increased fold-selectivity of the exemplary compounds over Comparator C) | > 10.00 | 6.3 | 140 | ≥ 9.00 | 9.40 | 8.46 | 8.05 | 6.77 | 6.77 | 8.25 | 30 | 0.63 | (+) (The (+) sign in Table Q signifies desirable increased fold-selectivity of the exemplary compounds over Comparator C) | 30 | 982 fold
